{"source": "paper PMC5412012", "about": "“HS1BP3 negatively regulates autophagy by modulation of phosphatidic acid levels” (Nature Communications, 2016)", "key": {"[1]": {"molecular_target": "T1, HS1BP3-PX (PX domain, GST-tagged) (Homo sapiens, UniProt Q53T59)", "T1 construct": "N-terminal PX domain only, lacks C-terminal part; by primers starts at Met1 (MQSPAVL) and ends ...EFLGTRS; GST- or MBP-tagged, expressed in Escherichia coli", "T1 sequence (Q53T59 1-139)": "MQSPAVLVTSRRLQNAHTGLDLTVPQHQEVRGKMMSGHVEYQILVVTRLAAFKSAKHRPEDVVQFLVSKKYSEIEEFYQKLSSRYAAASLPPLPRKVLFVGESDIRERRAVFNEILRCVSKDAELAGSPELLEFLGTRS", "test": "liposome floatation (Nycodenz), Coomassie gel", "assay_type": "binding", "settings": "5 uM GST-tagged protein, 2 mM total lipid, 20 mM Hepes pH 7.4, 150 mM NaCl, 1 mM MgCl2, 25 °C; PA in liposomes"}, "[2]": {"molecular_target": "T2, HS1BP3 (full length, GST-tagged) (Homo sapiens, UniProt Q53T59)", "T2 construct": "full length, N-terminal PX domain plus unstructured C terminus; GST-tagged (floatation) or MBP-tagged (lipid strips), expressed in Escherichia coli", "T2 sequence (Q53T59 1-392)": "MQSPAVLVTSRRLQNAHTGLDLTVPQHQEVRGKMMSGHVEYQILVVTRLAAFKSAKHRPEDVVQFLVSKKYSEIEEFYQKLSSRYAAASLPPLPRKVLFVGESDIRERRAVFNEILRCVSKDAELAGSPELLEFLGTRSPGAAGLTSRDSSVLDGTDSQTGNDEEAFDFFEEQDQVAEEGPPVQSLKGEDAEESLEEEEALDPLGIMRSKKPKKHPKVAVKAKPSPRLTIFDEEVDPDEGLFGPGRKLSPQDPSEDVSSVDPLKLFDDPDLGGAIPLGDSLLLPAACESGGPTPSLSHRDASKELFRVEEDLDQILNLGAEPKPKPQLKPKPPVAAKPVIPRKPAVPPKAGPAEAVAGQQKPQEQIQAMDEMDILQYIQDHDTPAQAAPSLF", "test": "liposome floatation (Nycodenz), Coomassie gel", "assay_type": "binding", "settings": "5 uM GST-tagged protein, 2 mM total lipid, 20 mM Hepes pH 7.4, 150 mM NaCl, 1 mM MgCl2, 25 °C; PA in liposomes"}}, "data": [{"molecule": "CCCCCCCC/C=C\\CCCCCCCC(=O)OC[C@H](COP(=O)(O)O)OC(=O)CCCCCCC/C=C\\CCCCCCCC", "note": "[dioleyoyl-phosphatidic acid]", "values": [{"measurement": "liposome floatation (Nycodenz), Coomassie gel", "setting": "[1]", "result": "binding of both HS1BP3 and the PX domain to PA increase with increasing concentrations"}, {"measurement": "liposome floatation (Nycodenz), Coomassie gel", "setting": "[2]", "result": "binding of both HS1BP3 and the PX domain to PA increase with increasing concentrations"}]}]}
